Source: patent US4697036A, “Process for the preparation of optically active alpha-arylalkanoic acids and novel intermediates thereof” (Zambon S.p.A., priority 1984, dated 1987)

Legend:
Assay type in all cases: in vivo
[1] = Anti-inflammatory activity by oral administration; conditions: for ED50: oral, dose column in μM/kg/os, after 3 h, read-out: ED50 (L.C. 95%)
Excerpt: A further unexpected property of the compounds of formula (C) is that they are in themselves pharmacologically active compounds. […] The following tables give the data relative to the anti-inflammatory and antipyretic activity of the compounds (D) in which: |Anti-inflammatory activity of the derivatives (a) and |(b) with respect to Naproxen and 5-bromo-Naproxen (c) |by oral administration

[2] = Antipyretic activity by oral administration in rats (change in body temperature)
Excerpt: Antipyretic activity of compound (a) and (b) with respect to
Naproxen and 5-bromo-Naproxen (c)
by oral administration in rats

[3] = Antipyretic activity by peritoneal administration in rats (change in body temperature); conditions: peritoneal administration (title)

COC(=O)C(O)C(OC(=O)C(C)c1ccc2cc(OC)ccc2c1)C(=O)OC (stereo not shown) [(a)]
Inhibition (after 3 h) ([1]; 10 μM/kg/os): 0% | Inhibition (after 3 h) ([1]; 30 μM/kg/os): 0% | Inhibition (after 3 h) ([1]; 100 μM/kg/os): 16% | ED50 [1]: 175 µmol/kg | Change in body temperature after 1 hour ([2]; 10 μM/kg/oral): -0.02 °C | Change in body temperature after 2 hours ([2]; 10 μM/kg/oral): +0.02 °C | Change in body temperature after 1 hour ([2]; 30 μM/kg/oral): +0.07 °C | Change in body temperature after 2 hours ([2]; 30 μM/kg/oral): -0.61 °C | Change in body temperature after 1 hour ([2]; 100 μM/kg/oral): +0.01 °C | Change in body temperature after 2 hours ([2]; 100 μM/kg/oral): -0.76 °C | Change in body temperature after 1 hour ([2]; 300 μM/kg/oral): +0.03 °C | Change in body temperature after 2 hours ([2]; 300 μM/kg/oral): -0.81 °C | Change in body temperature after 30 min ([3]; 10 μM/kg): -0.26 °C | Change in body temperature after 1 hour ([3]; 10 μM/kg): -0.52 °C | Change in body temperature after 4 hours ([3]; 10 μM/kg): -0.19 °C | Change in body temperature after 30 min ([3]; 30 μM/kg): -0.61 °C | Change in body temperature after 1 hour ([3]; 30 μM/kg): -1.02 °C | Change in body temperature after 4 hours ([3]; 30 μM/kg): -0.56 °C

COC(=O)C(O)C(OC(=O)C(C)c1ccc2c(Br)c(OC)ccc2c1)C(=O)OC (stereo not shown) [(b)]
Inhibition (after 3 h) ([1]; 10 μM/kg/os): 3% | Inhibition (after 3 h) ([1]; 30 μM/kg/os): 14% | Inhibition (after 3 h) ([1]; 100 μM/kg/os): 20% | ED50 [1]: 160 µmol/kg | Change in body temperature after 1 hour ([2]; 10 μM/kg/oral): -0.17 °C | Change in body temperature after 2 hours ([2]; 10 μM/kg/oral): -0.19 °C | Change in body temperature after 1 hour ([2]; 30 μM/kg/oral): -0.49 °C | Change in body temperature after 2 hours ([2]; 30 μM/kg/oral): -0.68 °C | Change in body temperature after 1 hour ([2]; 100 μM/kg/oral): -0.46 °C | Change in body temperature after 2 hours ([2]; 100 μM/kg/oral): -0.68 °C | Change in body temperature after 30 min ([3]; 10 μM/kg): -0.24 °C | Change in body temperature after 1 hour ([3]; 10 μM/kg): -0.52 °C | Change in body temperature after 4 hours ([3]; 10 μM/kg): -0.26 °C | Change in body temperature after 30 min ([3]; 30 μM/kg): -0.77 °C | Change in body temperature after 1 hour ([3]; 30 μM/kg): -0.87 °C | Change in body temperature after 4 hours ([3]; 30 μM/kg): -0.44 °C

COc1ccc2cc([C@H](C)C(=O)O)ccc2c1Br [(c), S(+)-2-(5-bromo-6-methoxy-2-naphthyl)-propionic acid, reference compound]
Inhibition (after 3 h) ([1]; 10 μM/kg/os): 6% | Inhibition (after 3 h) ([1]; 30 μM/kg/os): 34% | Inhibition (after 3 h) ([1]; 100 μM/kg/os): 34% | Inhibition (after 3 h) ([1]; 300 μM/kg/os): 56% | ED50 [1]: 196 µmol/kg | Change in body temperature after 1 hour ([2]; 30 μM/kg/oral): -0.17 °C | Change in body temperature after 2 hours ([2]; 30 μM/kg/oral): -0.66 °C | Change in body temperature after 1 hour ([2]; 100 μM/kg/oral): -1.33 °C | Change in body temperature after 2 hours ([2]; 100 μM/kg/oral): -1.67 °C | Change in body temperature after 1 hour ([2]; 300 μM/kg/oral): -1.42 °C | Change in body temperature after 2 hours ([2]; 300 μM/kg/oral): -1.84 °C | Change in body temperature after 30 min ([3]; 30 μM/kg): -0.55 °C | Change in body temperature after 1 hour ([3]; 30 μM/kg): -1.01 °C | Change in body temperature after 4 hours ([3]; 30 μM/kg): +0.06 °C | Change in body temperature after 30 min ([3]; 100 μM/kg): -0.78 °C | Change in body temperature after 1 hour ([3]; 100 μM/kg): -1.45 °C | Change in body temperature after 4 hours ([3]; 100 μM/kg): -0.99 °C

COc1ccc2cc([C@H](C)C(=O)O)ccc2c1 [Naproxen, S(+)2-(6-methoxy-2-naphtyl)-propionic acid, reference compound]
Inhibition (after 3 h) ([1]; 10 μM/kg/os): 38% | Inhibition (after 3 h) ([1]; 30 μM/kg/os): 45% | Inhibition (after 3 h) ([1]; 100 μM/kg/os): 66% | ED50 [1]: 31 µmol/kg | Change in body temperature after 1 hour ([2]; 3 μM/kg/oral): -0.38 °C | Change in body temperature after 2 hours ([2]; 3 μM/kg/oral): -0.52 °C | Change in body temperature after 1 hour ([2]; 10 μM/kg/oral): -1.22 °C | Change in body temperature after 2 hours ([2]; 10 μM/kg/oral): -1.48 °C | Change in body temperature after 1 hour ([2]; 30 μM/kg/oral): -1.86 °C | Change in body temperature after 2 hours ([2]; 30 μM/kg/oral): -1.89 °C | Change in body temperature after 30 min ([3]; 10 μM/kg): -1.00 °C | Change in body temperature after 1 hour ([3]; 10 μM/kg): -1.10 °C | Change in body temperature after 4 hours ([3]; 10 μM/kg): -0.86 °C
